The values below are quoted from earlier work in patent US20200229456A1, “Synergistic Formulation Including At Least One Gibberellin Compound and Salicyclic Acid” (Stoller Enterprises, Inc., priority 2018, published 2020).

Series [1] relates to banana slices. As to conditions: GA3 applied exogenously on banana slices.
The subject of series [2] is tomatoes. As to conditions: GA3 at 0.1%, CaCl2 at 1.5%, SA at 0.4 mM.
In series [3] the test system is Cavendish bananas. As to conditions: 300 ppm GA3 or 4 mM SA, versus other treatments.
Series [4] has as its system Bananas. As to conditions: SA at either 0.5 mM or 1 mM.

With `C=C1C[C@]23C[C@@]1(O)CC[C@H]2[C@@]12C=C[C@H](O)[C@@](C)(C(=O)O1)[C@H]2[C@@H]3C(=O)O` [GA3, gibberellic acid], in series [1], the “postponement of accumulation of sucrose” value was 2 days and the “respiration rate or ethylene profile” value is given as “does not alter”. Besides, in series [2], the “shelf life of tomatoes” value is on record as “extended the shelf life”. Also, in series [3], the delay in ripening entry was “more considerable delay in ripening”.

As for `O=C(O)c1ccccc1O` [SA, Salicylic acid], in series [4], the fruit firmness entry is recorded as “firmer fruits”, the respiration rates entry was “decrease in respiration rates” and the sugar content result is recorded as “lower sugar content”. For the same molecule, the “shelf life of tomatoes” value in series [2] was “extended the shelf life”. The delay in ripening entry in series [3] is recorded as “more considerable delay in ripening”.

As to `[Ca+2].[Cl-].[Cl-]` [CaCl2, calcium chloride], in series [2], the “shelf life of tomatoes” value is “extended the shelf life”.
